According to publication PMC6566875, “Synthesis and characterisation of a new benzamide-containing nitrobenzoxadiazole as a GSTP1-1 inhibitor endowed with high stability to metabolic hydrolysis” (Journal of Enzyme Inhibition and Medicinal Chemistry, 2019):
Like-named read-outs stand apart in the source and are kept apart here.

Key:
human GSTP1-1 [1] = target: T1, human GSTP1-1 (Homo sapiens, UniProt P09211); experiment: GSTP1-1 catalytic activity inhibition (CDNB-GSH conjugation, spectrophotometric); type: biochemical; conditions: detergent-free buffer
T1 construct: made in house; host or cells: E. coli Top 10
T1 sequence (P09211 2-210 limits assumed): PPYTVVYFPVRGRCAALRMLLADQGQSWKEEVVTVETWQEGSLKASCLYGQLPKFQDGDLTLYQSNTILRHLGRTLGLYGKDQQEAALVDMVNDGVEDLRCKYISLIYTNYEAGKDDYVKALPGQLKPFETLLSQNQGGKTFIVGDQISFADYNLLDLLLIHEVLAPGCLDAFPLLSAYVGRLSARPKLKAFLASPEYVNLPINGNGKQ
Method: The enzymatic activity of GSTP1-1 (20 nM subunits) was spectrophotometrically assayed at 340 nm (ε = 9,600 M^−1 cm^−1) and at 25 °C, by measuring the rate of 1-cloro-2,4-dinitrobenzene (CDNB) conjugation with GSH as a function of time[20]. The assay mixture contained 1 mM GSH and 1 mM CDNB in 1 mL of buffer B (0.1 M potassium phosphate buffer, pH 6.5 containing 0.1 mM EDTA).

TRAF2-GSTP1-1 complex = target: T2, TRAF2-GSTP1-1 complex (Homo sapiens, UniProt P09211); experiment: ELISA for TRAF2-GSTP1-1 protein-protein interaction; type: binding; conditions: 20 µM compound, pH 7.0
T2 construct: made in house; host or cells: E. coli Top 10 (GSTP1-1); E. coli BL21 (DE3) (TRAF2)
T2 sequence (P09211 2-210 limits assumed, one chain of several): as the sequence (P09211 2-210 limits assumed) above
Method: The formation of the TRAF2-GSTP1-1 complex was studied as previously described. Briefly, 200 µL of His-tagged TRAF2 C-terminal domain (0.005 µM in 20 mM Tris–HCl, pH 7.6, containing 150 mM NaCl and 10% glycerol) were added to each well of a 96-well His-Sorb plate (Qiagen, Hilden, Germany) and incubated overnight, at 4 °C, on a rocking platform. Afterwards, wells were washed with PBS and incubated for 30 min with GSTP1-1 (concentration range from 0.1 to 2 µM) in 10 mM potassium phosphate buffer, pH 7.0, containing 0.1 mM EDTA. Incubation with GSTP1-1 was also performed in the presence of 1 (20 µM), 3 (20 µM) or 4 (20 µM), both in the absence and presence of GSH (1 mM). At the end of incubation, the wells were washed with PBS and then filled with 200 µL of a mouse anti-GSTP1-1 antibody (Cell Signalling, Beverly, MA, USA; 1:1000 in TBS containing 0.1% Tween and 5% non-fat dry milk) for 2 h at room temperature. Subsequently, wells were washed with PBS and incubated with an antimouse IgG antibody (Cell Signalling; 1:1000 in TBS containing 0.1% Tween and 5% non-fat dry milk) for 45 min at room temperature. The immunocomplexes were detected by the addiction of 200 µL/well of the 1-Step-Turbo TMB substrate solution (Pierce, Rockford, IL, USA). The reaction was stopped after 10 min by the addition of 50 µL of 2M H2SO4, and the absorbance was measured at 450 nm. Data were analysed by fitting to Equation (1) where ν is the percentage of the saturated binding sites of TRAF2; [P]t and [L]t are the total concentrations of monomeric GSTP1-1 and TRAF2, respectively.

human GSTP1-1 [2] = target: T1, human GSTP1-1; conditions: 1 mM GSH, 1 mM CDNB, pH 6.5, 25 °C; read-out: GSTP1-1 inhibition assay IC50; cited from earlier work

| IC50 (human GSTP1-1 [1]; 1 mM GSH, 1 mM CDNB, pH 6.5, 25 °C) [nM] | Ki (human GSTP1-1 [1]; 1 mM GSH, 1 mM CDNB, pH 6.5, 25 °C, read-out: Ki app (GSTP1-1 enzyme activity)) [nM] | Extent of inhibition of GSTP1-1 enzyme activity (human GSTP1-1 [1]; 0.01-20 µM compound) | Maximal inhibition of GSTP1-1 conjugation activity (human GSTP1-1 [1]; 0.01-20 µM compound) | Compound | Effect on TRAF2-GSTP1-1 complex formation (TRAF2-GSTP1-1 complex; absence of GSH) | Effect on TRAF2-GSTP1-1 complex formation (TRAF2-GSTP1-1 complex; presence of GSH (1 mM)) | IC50 (human GSTP1-1 [2]) [nM] |
| --- | --- | --- | --- | --- | --- | --- | --- |
| 700 ± 100 | 700 ± 100 | completely inhibited |  | O=C(NCCCCCCSc1ccc([N+](=O)[O-])c2nonc12)c1ccccc1 [Compound 4, N-(6-((7-nitrobenzo[c][1,2,5]oxadiazol-4-yl)thio)hexyl)benzamide] | inhibited TRAF2-GST-P1-1 complex formation | inhibited TRAF2-GST-P1-1 complex formation |  |
|  |  |  | no more than 50% | O=C(OCCCCCCSc1ccc([N+](=O)[O-])c2nonc12)c1ccccc1 [Compound 3, 6-((7-nitrobenzo[c][1,2,5]oxadiazol-4-yl)thio)hexyl benzoate, reference compound] |  |  | 600 ± 300 |
|  |  |  |  | O=[N+]([O-])c1ccc(SCCCCCCO)c2nonc12 [Compound 1, 6-((7-nitrobenzo[c][1,2,5]oxadiazol-4-yl)thio)hexan-1-ol, reference compound] |  | overlaps those obtained with 3 and 4 |  |
